Where “and” joins values, the source holds several entries; their conditions need not be identical. Equal entries are not always repeated. Where two headings read alike, the source gives them in different places.
Tests used:
[1] = CellTiter‐Glo assay (cytotoxicity); details: human, WI-26 VA4 cells
[2] = tested on: WI‐26 VA4 cells; assay: CellTiter‐Glo assay (cytotoxicity); details: for activity at 0.0001 µM / activity at 0.0003 µM / activity at 0.001 µM / activity at 0.003 µM / activity at 0.01 µM / activity at 0.03 µM / activity at 0.1 µM / activity at 0.3 µM / activity at 1 µM / activity at 3 µM / activity at 10 µM / activity at 30 µM / activity at 100 µM: Homo sapiens
[3] = tested on: TNT Quick Coupled Transcription/Translation System (luciferase synthesis); type: biochemical

SMILES: Cc1c(Br)cnc2c1ncn2CC(=O)C[C@H]1NCCC[C@@H]1O [DWN11761]
- CC50 at 72 h [1]: 294 nM
- activity at 0.0001 µM ([2]; WI26VA4, read-out: CellTiter-Glo % of control, 0.1 nM, Experiment #1, replicates): 101%
- activity at 0.0001 µM ([2]; WI26VA4, read-out: CellTiter-Glo % of control, 0.1 nM, Experiment #2, replicates): 95.4%
- activity at 0.0003 µM ([2]; WI26VA4, read-out: CellTiter-Glo % of control, 0.3 nM, Experiment #1, replicates): 110%
- activity at 0.0003 µM ([2]; WI26VA4, read-out: CellTiter-Glo % of control, 0.3 nM, Experiment #2, replicates): 103%
- activity at 0.001 µM ([2]; WI26VA4, read-out: CellTiter-Glo % of control, 1 nM, Experiment #1, replicates): 106%
- activity at 0.001 µM ([2]; WI26VA4, read-out: CellTiter-Glo % of control, 1 nM, Experiment #2, replicates): 93.8%
- activity at 0.003 µM ([2]; WI26VA4, read-out: CellTiter-Glo % of control, 3 nM, Experiment #1, replicates): 100%
- activity at 0.01 µM ([2]; WI26VA4, read-out: CellTiter-Glo % of control, 10 nM, Experiment #1, replicates): 104%
- activity at 0.03 µM ([2]; WI26VA4, read-out: CellTiter-Glo % of control, 30 nM, Experiment #1, replicates): 94.7%
- activity at 0.1 µM ([2]; WI26VA4, read-out: CellTiter-Glo % of control, 100 nM, Experiment #1, replicates): 72.9%
- activity at 0.3 µM ([2]; WI26VA4, read-out: CellTiter-Glo % of control, 300 nM, Experiment #1, replicates): 56.9%
- activity at 1 µM ([2]; WI26VA4, read-out: CellTiter-Glo % of control, 1000 nM, Experiment #1, replicates): 24.9%
- activity at 1 µM ([2]; WI26VA4, read-out: CellTiter-Glo % of control, 1000 nM, Experiment #2, replicates): 12.4%
- activity at 3 µM ([2]; WI26VA4, read-out: CellTiter-Glo % of control, 3000 nM, Experiment #1, replicates): 39.6%
- activity at 3 µM ([2]; WI26VA4, read-out: CellTiter-Glo % of control, 3000 nM, Experiment #2, replicates): 30.3%
- activity at 10 µM ([2]; WI26VA4, read-out: CellTiter-Glo % of control, 10000 nM, Experiment #1, replicates): 14.4%
- activity at 10 µM ([2]; WI26VA4, read-out: CellTiter-Glo % of control, 10000 nM, Experiment #2, replicates): 8.9%
- activity at 30 µM ([2]; WI26VA4, read-out: CellTiter-Glo % of control, 30000 nM, Experiment #1, replicates): 6.42%
- activity at 30 µM ([2]; WI26VA4, read-out: CellTiter-Glo % of control, 30000 nM, Experiment #2, replicates): 4.58%
- activity at 100 µM ([2]; WI26VA4, read-out: CellTiter-Glo % of control, 100000 nM, Experiment #1, replicates): 2.45%
- activity at 100 µM ([2]; WI26VA4, read-out: CellTiter-Glo % of control, 100000 nM, Experiment #2, replicates): 1.52%
- activity at 0.0001 µM ([2]; WI26VA4, read-out: CellTiter-Glo % of control, average, 0.1 nM, average): 102%
- activity at 0.0003 µM ([2]; WI26VA4, read-out: CellTiter-Glo % of control, average, 0.3 nM, average): 105%
- activity at 0.001 µM ([2]; WI26VA4, read-out: CellTiter-Glo % of control, average, 1 nM, average): 96.9%
- activity at 0.003 µM ([2]; WI26VA4, read-out: CellTiter-Glo % of control, average, 3 nM, average): 82.5%
- activity at 0.01 µM ([2]; WI26VA4, read-out: CellTiter-Glo % of control, average, 10 nM, average): 91.2%
- activity at 0.03 µM ([2]; WI26VA4, read-out: CellTiter-Glo % of control, average, 30 nM, average): 86.4%
- activity at 0.1 µM ([2]; WI26VA4, read-out: CellTiter-Glo % of control, average, 100 nM, average): 66.3%
- activity at 0.3 µM ([2]; WI26VA4, read-out: CellTiter-Glo % of control, average, 300 nM, average): 51.8%
- activity at 1 µM ([2]; WI26VA4, read-out: CellTiter-Glo % of control, average, 1000 nM, average): 20.8%
- activity at 3 µM ([2]; WI26VA4, read-out: CellTiter-Glo % of control, average, 3000 nM, average): 32.6%
- activity at 10 µM ([2]; WI26VA4, read-out: CellTiter-Glo % of control, average, 10000 nM, average): 11.2%
- activity at 30 µM ([2]; WI26VA4, read-out: CellTiter-Glo % of control, average, 30000 nM, average): 5.72%
- activity at 100 µM ([2]; WI26VA4, read-out: CellTiter-Glo % of control, average, 100000 nM, average): 1.91%
- CellTiter-Glo LogIC50 (best-fit value) ([2]; log(inhibitor) vs. response, variable slope (four parameters), concentration in nM): 2.468
- TNT-luciferase % of control ([3]; 6 nM, Experiment #1, replicates, 0.006 µM): 103.28 % of control and 100.82 % of control and 110.66 % of control
- TNT-luciferase % of control ([3]; 6 nM, Experiment #2, replicates, 0.006 µM): 86.60 % of control and 91.24 % of control and 93.56 % of control
- TNT-luciferase % of control ([3]; 6 nM, Experiment #3, replicates, 0.006 µM): 100.46 % of control and 97.13 % of control and 93.79 % of control
- TNT-luciferase % of control, average ([3]; 6 nM): 97.50 % of control
- TNT-luciferase % of control ([3]; 20 nM, Experiment #1, replicates, 0.02 µM): 108.20 % of control and 109.84 % of control (2×)
- TNT-luciferase % of control ([3]; 20 nM, Experiment #2, replicates, 0.02 µM): 85.82 % of control and 94.33 % of control and 98.20 % of control
- TNT-luciferase % of control ([3]; 20 nM, Experiment #3, replicates, 0.02 µM): 98.25 % of control and 93.99 % of control and 91.88 % of control
- TNT-luciferase % of control, average ([3]; 20 nM): 98.93 % of control
- TNT-luciferase % of control ([3]; 60 nM, Experiment #1, replicates, 0.06 µM): 130.33 % of control and 132.79 % of control and 131.97 % of control
- TNT-luciferase % of control ([3]; 60 nM, Experiment #2, replicates, 0.06 µM): 90.46 % of control and 98.97 % of control and 95.10 % of control
- TNT-luciferase % of control ([3]; 60 nM, Experiment #3, replicates, 0.06 µM): 100.65 % of control and 91.36 % of control and 86.32 % of control
- TNT-luciferase % of control, average ([3]; 60 nM): 106.44 % of control
- TNT-luciferase % of control ([3]; 200 nM, Experiment #1, replicates, 0.2 µM): 106.56 % of control and 109.84 % of control and 110.66 % of control
- TNT-luciferase % of control ([3]; 200 nM, Experiment #2, replicates, 0.2 µM): 68.51 % of control and 71.29 % of control and 70.98 % of control
- TNT-luciferase % of control ([3]; 200 nM, Experiment #3, replicates, 0.2 µM): 96.73 % of control and 90.18 % of control and 101.79 % of control
- TNT-luciferase % of control, average ([3]; 200 nM): 91.84 % of control
- TNT-luciferase % of control ([3]; 600 nM, Experiment #1, replicates, 0.6 µM): 44.18 % of control and 45.33 % of control and 50.74 % of control
- TNT-luciferase % of control ([3]; 600 nM, Experiment #2, replicates, 0.6 µM): 46.24 % of control and 47.63 % of control and 53.81 % of control
- TNT-luciferase % of control ([3]; 600 nM, Experiment #3, replicates, 0.6 µM): 54.77 % of control and 51.07 % of control and 57.11 % of control
- TNT-luciferase % of control, average ([3]; 600 nM): 50.10 % of control
- TNT-luciferase % of control ([3]; 2000 nM, Experiment #1, replicates, 2 µM): 2.25 % of control and 2.32 % of control and 2.42 % of control
- TNT-luciferase % of control ([3]; 2000 nM, Experiment #2, replicates, 2 µM): 3.17 % of control and 3.09 % of control and 3.97 % of control
- TNT-luciferase % of control ([3]; 2000 nM, Experiment #3, replicates, 2 µM): 3.31 % of control and 3.19 % of control and 3.30 % of control
- TNT-luciferase % of control, average ([3]; 2000 nM): 3.00 % of control

— PMC10331583, “Control of fibrosis with enhanced safety via asymmetric inhibition of prolyl‐tRNA synthetase 1” (EMBO Molecular Medicine, 2023)
